The values that follow come from patent publication US20080187492A1, “Drosophila Models For Diseases Affecting Learning and Memory” (priority 2004, published 2008).

Holding throughout (assay type): in vivo, Drosophila melanogaster
Assay [1] concerns FS flies lacking dfmr1 activity. Put plainly: Short-term memory (60 mins) with mated female targets, FS flies. As to the method: (§1) Effects of drug treatment on short-term memory (60 mins) in flies lacking dfmr1 activity with mated female targets. Short-term (60 min.) memory was measured in Rescue and FS flies that were either fed control food or underwent various drug treatments as described below. Short-term memory was measured by placing a trained male in a holding chamber for 60 minutes (after being trained for one hour with a previously mated female), then subsequently placing him in a testing chamber with a mated female target for a ten-minute courtship interval (C.I.). This C.I. was compared to the C.I. obtained for naïve courtship of a previously mated female, i.e., C.I. during the first 10 minutes of the training session with a previously mated female. Additionally, for reference the C.I. during the last 10 minutes of the training period was also determined. Numbers of flies are indicated above each bar for all groups. The levels of significance are indicated as follows; *=p<0.05; **=p<0.005; ***=p<0.0001.
(§2) Restoration of short-term memory with mGluR antagonists. To establish that the failure to observe memory was not due to a problem with recognizing or processing the appropriate cues from the virgin female target, we used a modified version of the conditioned courtship paradigm where the male is paired with a mated female target subsequent to training (Kane et al., 1997; Joiner and Griffith, 1997; Joiner and Griffith, 1999; Kamashev et al., 1999). Again, with pharmacologic treatment it is necessary to utilize more then one compound to confirm the specificity of the target, so in this case we used four mGluR antagonists. […] It is also important to note that the robust deficit in synaptic plasticity in FS flies, with regard to memory, is a critical extension of the previous models of Fragile X syndrome in model organisms, since this is one of the most prominent aspects of the human disorder. Furthermore, we have shown that antagonism of the mGluRs can restore synaptic plasticity in the Drosophila model of Fragile X syndrome.

The subject of a further assay is Rescue flies. The experiment in a line: Short-term memory (60 mins) with mated female targets, Rescue flies. The protocol:
as §1, §2

The test system of assay [2] is FS (dFMR1-3+frame shifted rescue fragment) flies. The experiment in a line: Naive courtship behavior (courtship index toward virgin female), FS flies. An excerpt: (§3) Learning and memory (cognitive abilities) can be examined in Drosophila by utilizing several available learning and memory paradigms. The most popular is a classical conditioning paradigm in which the flies learn to associate electric shocks with olfactory cues (Dudia et al, 1976; Davis, 1993; Tully, 1994). An alternative paradigm to study learning and memory in Drosophila is called conditioned courtship, wherein a male fly learns to modify his courtship behavior after experience with an unreceptive female; it is a multi-sensory paradigm involving associations from more then one sensory input (Siegel and Hall, 1979; for review see Hall, 1994). It is a more complex associative learning paradigm and was utilized to assay learning and memory in this article to elucidate the role of dFMR1 in learning and memory (Tompkins et al, 1980; Tompkins et al, 1982; Tompkins et al, 1983; Tompkins et al, 1984; Ackerman and Siegel, 1986). Courting male flies perform a characteristic sequence of behaviors: orienting toward and following the female, tapping her with his forelegs, vibrating one or both wings, licking her genitalia, and attempting copulation (Sturtevant, 1915; Bastock and Manning, 1955; Bastock, 1956). These behaviors are repeated with some variation until successful copulation occurs. Virgin females will generally respond by mating; however, recently mated females will be unreceptive and will not allow copulation to occur (Spieth, 1974), they display different behaviors (Bastock and Manning, 1955; Connolly and Cook, 1973) and have an altered, although somewhat overlapping, pheromonal profile (Cobb and Ferveur, 1996). The naive male will find a previously mated female to have a pheromonal repertoire that is less provocative then that of a virgin female target. A naive male paired with a mated female will initially court her, but his courtship activity soon decreases; after 1 hour of experience with the mated female, his courtship when subsequently paired with a virgin female remains depressed for 2-3 hours (Siegel and Hall, 1979). This effect is not a general suppression of all courtship activity since a male's tendency to court an immature male is not suppressed (Gailey et al, 1984). […] These behaviors are quantified as a courtship index (CI) which is defined as the percentage of time a male fly spends performing any of the six courtship steps toward a target female in a ten minute test period. A decrease in CI after training with a previously mated female is indicative of behavioral plasticity in the form of learning or memory.
Since we use female targets that are not etherized (therefore they are freely moving), and the w118 and dfmr1-3 flies may have slightly impaired visual acuity due to lack of eye pigmentation, and since visual inputs affect courtship behavior, all subsequent experiments were done utilizing only the genotypes Rescue: dfmr1-3+wild type rescue fragment, and FS: dfmr1-3+frame shifted rescue fragment. Both of these genotypes have more pigmentation and similar levels of eye pigmentation to each other. For FIGS. 4 and 5, a high concentration of MPEP (1,000 μg/ml) was used. For the remainder of the experiments the food was either control (CT) or exactly the same control food containing the appropriate concentration of MPEP (M). The position of the CT and the M are indicative of the point at which the group was on the particular food. The first letter indicates the food type that the larvae grew up on, and the second letter denotes the food type that the adult flies were placed on within four hours of eclosion, […] fresh food.
Naive males were placed in the training chamber for one hour with no female, and then placed with a virgin target female for a ten-minute interval. The naive courtship behavior was reduced by high MPEP concentration in Rescue (p<0.0001) and FS (p<0.0005) lines, and it was depressed to similar levels by high MPEP treatment in the Rescue and FS groups (FIG. 2A). […]

Assay [3] relates to Rescue (dFMR1-3+wild type rescue fragment) flies. The experiment in a line: Naive courtship behavior (courtship index toward virgin female), Rescue flies. The conditions noted are these: for naive courtship: 5 day old.
Source text: as §3
Since we use female targets that are not etherized (therefore they are freely moving), and the w118 and dfmr1-3 flies may have slightly impaired visual acuity due to lack of eye pigmentation, and since visual inputs affect courtship behavior, all subsequent experiments were done utilizing only the genotypes Rescue: dfmr1-3+wild type rescue fragment, and FS: dfmr1-3+frame shifted rescue fragment. Both of these genotypes have more pigmentation and similar levels of eye pigmentation to each other. For FIGS. 4 and 5, a high concentration of MPEP (1,000 μg/ml) was used. For the remainder of the experiments the food was either control (CT) or exactly the same control food containing the appropriate concentration of MPEP (M). The position of the CT and the M are indicative of the point at which the group was on the particular food. The first letter indicates the food type that the larvae grew up on, and the second letter denotes the food type that the adult flies were placed on within four hours of eclosion, and for the four following days, until the day before testing when they were placed on fresh food.
In order to determine if MPEP can get into the Drosophila central nervous system (CNS) through feeding behavior, we mixed MPEP into the food at a concentration of 1,000 μg/ml ([…]). Males were raised on CT food and then placed on either CT or M food. […]

In assay [4] the test system is FS (dFMR1-3+frame shifted rescue fragment) flies. Put plainly: Conditioned courtship: short-term memory at 60 minutes, virgin female target, FS flies. As to the method:
(§4) Short-term memory. The model was further extended to encompass short-term memory at 60 minutes after training. After the one hour training session with a previously mated female, the female is removed and the male is placed in a holding chamber for 60 minutes, then subsequently placed in a testing chamber with a virgin female target to assess short-term memory (FIG. 4C). […] CT-CT FS flies court just as vigorously at 60 minutes after training as naive CT-CT FS flies. […] The FS groups that were treated with MPEP in development alone, adulthood alone or in both development and adulthood display experience dependent reduction of courtship activity at 60 minutes after training when compared to group matched naives M-M FS, p<0.0001, CT-M FS, p<0.0001 and M-CT FS, p<0.0001. […] Additionally, flies were tested for ability to discriminate between virgin and previously mated females (FIG. 4D).
(§5) In order to examine short-term memory at 60 minutes after training, after the one hour training session with a previously mated female, the female is removed and the male is placed in a holding chamber for 60 minutes, then subsequently placed in a testing chamber with a virgin female (FIG. 9B). […] CT-CT FS flies court just as vigorously at 60 minutes after training as naive CT-CT FS flies. […] The FS groups that were treated with MPEP in development alone, adulthood alone or in both development and adulthood display experience dependent reduction of courtship activity at 60 minutes after training when compared to group matched naives M-M FS.

For assay [5], the system named is Rescue (dFMR1-3+wild type rescue fragment) flies. The experiment in a line: Conditioned courtship: short-term memory at 60 minutes, virgin female target, Rescue flies. As to conditions: 5 day old; MPEP (20 μg/ml), NaCl (5 and 50 mM), LY341495 (400 nM). The protocol: as §4, §5
Where [6] appears, read: 86 μM MPEP, 400 nM LY341495, 573 μM MPPG, 348 μM MTPG.
Setting [7] is: 5 day old, 8.6 mM MPEP, 400 nM LY341495.

For the compound `CC(N)(C(=O)O)c1ccc(P(=O)(O)O)cc1` (racemic) [MPPG, (RS)-alpha-methyl-4-phosphoonophenylglycine], the “short-term memory, mated female target” value is “demonstrated restoration of short-term memory” in assay [1] (setting [6]) and “demonstrated intact short-term memory” in the assay with Rescue flies (setting [6]). Also, the “memory at 60 minutes post training, mated female target” value (in assay [1] (setting [7]); with Rescue flies (setting [7])) was “demonstrate memory at 60 minutes post training” in each case. Also, the naive courtship activity result in assay [2] (5 day old adults, 573 mM MPPG (p<0.0001) or 348 μM MTPG (p<0.005)) was “significant increase in courtship activity”; in assay [3] (5 day old adults, 573 mM MPPG or 348 μM MTPG, p<0.0001 for both) it was “significant decrease in courtship activity”. Besides, the short-term memory entry in assay [4] (20-day-old, concentration not given) is “rescue short-term memory”.
On to `[Cl-].[Na+]` [NaCl], for which the naive courtship entry in assay [2] (5 day old, NaCl at 5 or 50 mM in food) was “did not restore naive courtship”; in assay [3] (LiCl 5 mM, NaCl 5 mM in food) it was “did not suppress naive courtship”; in assay [3] (LiCl 50 mM, NaCl 50 mM in food) it was “suppressed naive courtship”. In addition, the short term memory entry in assay [5] is given as “did not affect short term memory”; in assay [4] (5 day old, NaCl (5 and 50 mM)), “had no effect”.
